Values quoted from earlier work, collected in patent US5739112A, “Inhibitors of factor Xa” (Corvas International, Inc., priority 1995, dated 1998).

Legend:
Conditions in all cases: Turner et al., p. 4932; cited from earlier work
Human factor Xa = target: T1, Human factor Xa (Homo sapiens, UniProt P00742)
T1 construct: Human factor X contains a light-chain subunit containing 139 amino acid residues; purchased Enzyme Research Laboratories

Human factor XIa = system: Human factor XIa
human thrombin = human thrombin (Homo sapiens, UniProt P00734)

T1 sequence (P00742 235-488 limits assumed): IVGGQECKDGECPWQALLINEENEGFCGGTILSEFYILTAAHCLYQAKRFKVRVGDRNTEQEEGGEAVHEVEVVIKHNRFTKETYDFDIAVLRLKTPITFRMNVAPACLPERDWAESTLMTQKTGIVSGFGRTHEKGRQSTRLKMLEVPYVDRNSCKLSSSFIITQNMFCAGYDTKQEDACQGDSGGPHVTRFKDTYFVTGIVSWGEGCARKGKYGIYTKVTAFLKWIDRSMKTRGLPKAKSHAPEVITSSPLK
T1 sequence (P00742 41-179 partner limits assumed): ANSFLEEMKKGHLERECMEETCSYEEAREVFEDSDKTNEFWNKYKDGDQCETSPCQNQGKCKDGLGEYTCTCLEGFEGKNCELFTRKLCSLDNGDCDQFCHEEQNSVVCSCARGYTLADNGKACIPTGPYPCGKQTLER

**Q.** Which results are given for `CC(=Cc1ccccc1)C(=O)Oc1ccc(C(=N)N)cc1` [p-Amidinophenyl α-methylcinnamate]?
**A.** second-order rate constant of inactivation, human factor Xa (Human factor Xa): 1650 M⁻¹ s⁻¹; second-order rate constant of inactivation, human factor XIa (Human factor XIa): 2670 M⁻¹ s⁻¹; second-order rate constant of inactivation, human thrombin (human thrombin): 2670 M⁻¹ s⁻¹
